# Measurements as given in publication PMC6746776, “TA*p63 and GTAp63 achieve tighter transcriptional regulation in quality control by converting an inhibitory element into an additional transactivation domain” (Cell Death & Disease, 2019).
# “Also recorded” adds a separate entry of the source.
# Legend:
# [1] = system: TA*p63α in Sum159 cells; assay: Western blot, TA*p63α level in Sum159 cells; type: cell-based, human; conditions: 10 µM Dox, immunoblotting (D2K8X)
# Experimental: (§1) 4–15 or 7.5% SDS–PAGE Mini-PROTEAN TGX gels (BioRad) were blotted using the semidry Trans-Blot Turbo Transfer system (BioRad).The following antibodies were prepared in 5% milk in TBS-T and incubated overnight at 4 °C: anti-Myc (1:1000, clone 4A6, Millipore), anti-p63 (1:2500, ab124762, Abcam), anti-p63α XP (1:1000, D2K8X, Cell Signaling), anti-GAPDH (1:20,000, clone 6C5, Merck), anti-p53 (1:500, DO-1, Santa Cruz), anti-PARP (1:1000, 9542, Cell Signaling), anti-cleaved caspase3 (1:1000, 5A1E,Cell Signaling), and anti-vinculin (1:1000, clone 7F9, Santa Cruz). Secondary antibodies, used for detection, were also prepared in 5% milk in TBS-T and incubated for 1 h at RT (goat anti-mouse HRP, 1:5000, A9917, Sigma–Aldrich; goat anti-rabbit HRP, 1:2000, Jackson Immuno Research Europe Ltd., 111–035–144). Quantification of western blot signals was performed by using ImageJ.
# (§2) Supplementary Figure S8 Dox treatment induces apoptosis in the breast cancer cell line Sum159. SDS-PAGEs followed by immunoblotting of Dox treated (10 µM) Sum159 cells. (a) Western blot was analyzed for the apoptosis markers PARP (#9542, Cell Signaling) and caspase 3 (5A1E, Cell Signaling). PARP and caspase3 cleavage were detectable starting at 4 h following treatment. (b) Mutant p53 (DO-1, Santa Cruz) and TA*p63α (D2K8X, Cell Signaling) levels were also investigated. […] GAPDH was used as loading control.
# [2] = system: Sum159 cells; assay: Western blot, apoptosis markers cleaved PARP and cleaved Caspase3 in Sum159 cells; type: cell-based, human; conditions: 10 µM Dox, immunoblotting
# Experimental: as §1, §2
# [3] = system: Sum159 cells; assay: Cell survival assay of Sum159 cells (crystal violet); type: cell-based, human; conditions: 1.5 µM Dox for 24 h, cultured for additional 24 h (24–30 h in method), vs DMSO
# Experimental: (§3) Immunoprecipitation was performed with two different p63 specific antibodies, AHP1815 (BioRad) and ab124267 (Abcam). For detection on WB, the p63α XP (D2K8X, cell signaling) antibody was used. b Specific TA*-peptides were found in two independent IP-MS analyses of immunoprecipitated p63 from Sum159 cells. Immunoprecipitation was performed with the p63 antibody ab124267 (Abcam). Two different types of mass spectrometers relying on different fragmentation and detection approaches were used for the experiments (IT: ion trap, CID: collision induced dissociation, FT: Fourier transform, HCD: higher-energy collisional dissociation). c BN-PAGE (3–12%) of Sum159 lysate followed by western blotting for TA*p63α. […] Cells were treated with 1.5 µM Dox or DMSO for 24 h (six-well plate) and cultured for additional 24–30 h. Sum159 cells were fixed with glutaraldehyde (6%) and stained with crystal violet (0.5%)
# Sum159 cells were seeded in a six-well plate. Two days after seeding, cells were treated either with 1.5 µM Dox or DMSO for 24 h. The medium was changed and cells were cultured for additional 24–30 h. Afterwards, cells were washed three times with PBS and the fixation and staining solution (0.5% crystal violet, 6% glutaraldehyde) was incubated 1–2 h at RT. The solution was aspirated and the fixed cells were washed about five times with H2O and dried for 1–2 days at RT.
# [4] = system: TAp63α; assay: BN-PAGE oligomeric state of TAp63α upon Dox treatment
# Experimental: (§4) As a control, we used the S582/S583A mutants, which remove the Chk2 priming site preventing tetramerization[13].
# (§5) Three hundred nanogram expression vector carrying the p63α gene were transiently transfected in U2OS cells (12-well plate). The next day, cells were treated with 10 µM Dox for 6 h. Migration of the different oligomeric states is indicated by T (tetramer), D (dimer), and M (monomer). […] Western blot analysis was carried out using an anti-myc antibody (4A6, Merck). Cells were pre-incubated with increasing Chk2 (BML-277, Merck) or CK1 inhibitor (PF670462, Sigma–Aldrich) concentrations (5, 25, 50 µM) for 1 h. Afterwards, 10 µM Dox was added and cells were harvested 6 h later. Migration of the different oligomeric states is indicated by T (tetramer), D (dimer), and M (monomer). Vinculin was used as loading control. Protein levels loaded on BN-PAGE were adjusted to equal p63 amounts by prior western blot analysis. SDS-PAGE to detect phosphoshifts were not input adjusted
# (§6) H1299 cells were transfected using the Qiagen Effectene kit according to the manufacturer’s manual in a 12-well plate or H1299 cells stably expressing p63 isoforms were used. Cells were harvested and lysed in NP lysis buffer (20 mM Tris, 150 mM NaCl, 2 mM MgCl2, 20 mM CHAPS, 1 mM DTT, complete protease inhibitor cocktail (Roche), PhosSTOP (Roche) pH 7.4 or pH 8.0). Benzonase (Merck) was added and samples were lysed on ice for 1 h. BN-PAGE (3–12%, Thermo Fisher Scientific) was performed and blotted as previously described[17],[35]. Protein levels loaded on BN-PAGE were adjusted to equal p63 amounts by prior western blot analysis. SDS-PAGE to detect phosphoshifts were not input adjusted.
# (§7) 300 ng expression vector carrying the p63 gene were transiently transfected in H1299 cells (12-well plate). The next day, cells were treated with 10 µM Dox for 6 h. Migration of the different oligomeric states is indicated by T (tetramer), D (dimer) and M (monomer). […] Stably p63 expressing H1299 were treated with 10 µM Dox for up to 10 h. Protein levels loaded on BN-PAGE were adjusted to equal p63 amounts by prior western blot analysis. SDS-PAGE to detect phosphoshifts were not input adjusted.
# [5] = system: GTAp63α; assay: BN-PAGE oligomeric state of GTAp63α upon Dox treatment
# Experimental: as §4, §5, §6, §7
# [6] = system: TA*p63α; assay: BN-PAGE oligomeric state of TA*p63α upon Dox treatment
# Experimental: as §4, §5, §6, §7
# [7] = system: TA*p63α in Sum159 cells; assay: BN-PAGE of Sum159 lysate, oligomeric state of endogenous TA*p63α; type: cell-based, human; conditions: 10 µM Dox, different periods of time, BN-PAGE (3–12%)
# Experimental: as §3
# To test whether TA*p63α can be activated in Sum159 cells by chemotherapeutic agents and induce apoptosis we treated cells with 10 µM Dox. […] Furthermore, the apoptosis marker cleaved PARP and cleaved Caspase3 are detectable starting 4 h following treatment (Supplementary Fig. S8). We also investigated cell survival.
# [8] = system: mutant p53 in Sum159 cells; assay: Western blot, mutant p53 level in Sum159 cells; type: cell-based, human; conditions: 10 µM Dox, mutant p53, immunoblotting (DO-1)
# Experimental: as §1, §2
# [9] = H1299 stably expressing, 10 µM Dox for up to 10 h, BN-PAGE (Supplementary Fig. S4c)
# [10] = transfected U2OS and H1299 cells, 10 µM Dox, 6 h, BN-PAGE
structure (smiles),measurement,setting,value
"COc1cccc2c1C(=O)c1c(O)c3c(c(O)c1C2=O)C[C@@](O)(C(=O)CO)C[C@@H]3O[C@H]1C[C@H](N)[C@H](O)[C@H](C)O1 [Dox, doxorubicin]",p63 level during treatment,[1],A decrease in p63 and p53 level is detectable
same,time from which cleaved Caspase3 is detectable,[2],4 h
same,time from which cleaved PARP is detectable,[2],4 h
same,cell survival (cell density),[3],clear decrease in cell density
same,"tetramer/dimer ratio following Dox, TAp63α",[4]; [9],almost completely converted into tetramers
same,time after which TAp63α becomes partly tetrameric,"[4]; tetramerization kinetics, H1299 stably expressing, 10 µM Dox for up to 10 h",1 h
same,"activation to tetrameric state, TAp63α",[4]; [10],activates all three isoforms to adopt tetrameric states
same,"tetramer/dimer ratio following Dox, GTAp63α",[5]; [9],do not achieve predominant tetramerization like TAp63α; also recorded: significant population of the dimeric state; also recorded: do not reach the high tetramer/dimer ratio seen with TAp63α
same,"activation to tetrameric state, GTAp63α",[5]; [10],activates all three isoforms to adopt tetrameric states
same,"tetramer/dimer ratio following Dox, TA*p63α",[6]; [9],do not achieve predominant tetramerization like TAp63α; also recorded: significant population of the dimeric state; also recorded: do not reach the high tetramer/dimer ratio seen with TAp63α
same,"activation to tetrameric state, TA*p63α",[6]; [10],activates all three isoforms to adopt tetrameric states
same,shift of oligomeric state of TA*p63α in Sum159 cells,[7],"activated upon Dox treatment; also recorded: shifted from the inactive, dimeric to the active, tetrameric form"
same,shift of oligomeric state of TA*p63α in Sum159 cells,[7]; listed as doxorubicin,TA*p63α gets activated
same,p53 level during treatment,[8],A decrease in p63 and p53 level is detectable
